In PubChem BioAssay AID1918949 (Molecular Pharmacology Branch, DTP, NCI, 2023):

Tested on: K24384-001-R-PDC complex spheroid viability
Assay: Anticancer human tumor K24384-001-R-PDC patient-derived pancreatic adenocarcinoma cell line growth inhibition
Conditions: for IC50: curve of first compound; for viability, T/C: stronger effect = lower value
In short: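 Multicellular complex spheroids of tumor cells with human endothelial cells (HUVEC) and mesenchymal stem cells; the LSD1 inhibitor iadademstat was combined with standard-of-care or investigational agents. Top concentration at or near clinical Cmax, half-log dilutions; final DMSO ≤0.25%.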

[1] = second compound 0.1 µM, first compound 0.0316 µM
[2] = second compound 0.1 µM, first compound 0.1 µM
[3] = second compound 0.1 µM, first compound 0.316 µM
[4] = second compound 0.1 µM, first compound 1 µM
[5] = second compound 0.316 µM, first compound 0.0316 µM
[6] = second compound 0.316 µM, first compound 0.1 µM
[7] = second compound 0.316 µM, first compound 0.316 µM
[8] = second compound 0.316 µM, first compound 1 µM
[9] = second compound 1 µM, first compound 0.0316 µM
[10] = second compound 1 µM, first compound 0.1 µM
[11] = second compound 1 µM, first compound 0.316 µM
[12] = second compound 1 µM, first compound 1 µM
[13] = second compound 3.16 µM, first compound 0.0316 µM
[14] = second compound 3.16 µM, first compound 0.1 µM
[15] = second compound 3.16 µM, first compound 0.316 µM
[16] = second compound 3.16 µM, first compound 1 µM
[17] = second compound 10 µM, first compound 0.0316 µM
[18] = second compound 10 µM, first compound 0.1 µM
[19] = second compound 10 µM, first compound 0.316 µM
[20] = second compound 10 µM, first compound 1 µM
[21] = second compound 0.1 µM, first compound 0.00949 µM
[22] = second compound 0.1 µM, first compound 0.03 µM
[23] = second compound 0.1 µM, first compound 0.0949 µM
[24] = second compound 0.1 µM, first compound 0.3 µM
[25] = second compound 0.1 µM, first compound 0.949 µM
[26] = second compound 0.1 µM, first compound 3 µM
[27] = second compound 0.316 µM, first compound 0.00949 µM
[28] = second compound 0.316 µM, first compound 0.03 µM
[29] = second compound 0.316 µM, first compound 0.0949 µM
[30] = second compound 0.316 µM, first compound 0.3 µM
[31] = second compound 0.316 µM, first compound 0.949 µM
[32] = second compound 0.316 µM, first compound 3 µM
[33] = second compound 1 µM, first compound 0.00949 µM
[34] = second compound 1 µM, first compound 0.03 µM
[35] = second compound 1 µM, first compound 0.0949 µM
[36] = second compound 1 µM, first compound 0.3 µM
[37] = second compound 1 µM, first compound 0.949 µM
[38] = second compound 1 µM, first compound 3 µM
[39] = second compound 3.16 µM, first compound 0.00949 µM
[40] = second compound 3.16 µM, first compound 0.03 µM
[41] = second compound 3.16 µM, first compound 0.0949 µM
[42] = second compound 3.16 µM, first compound 0.3 µM
[43] = second compound 3.16 µM, first compound 0.949 µM
[44] = second compound 3.16 µM, first compound 3 µM
[45] = second compound 10 µM, first compound 0.00949 µM
[46] = second compound 10 µM, first compound 0.03 µM
[47] = second compound 10 µM, first compound 0.0949 µM
[48] = second compound 10 µM, first compound 0.3 µM
[49] = second compound 10 µM, first compound 0.949 µM
[50] = second compound 10 µM, first compound 3 µM
[51] = second compound 0.1 µM, first compound 0.00316 µM
[52] = second compound 0.1 µM, first compound 0.01 µM
[53] = second compound 0.316 µM, first compound 0.00316 µM
[54] = second compound 0.316 µM, first compound 0.01 µM
[55] = second compound 1 µM, first compound 0.00316 µM
[56] = second compound 1 µM, first compound 0.01 µM
[57] = second compound 3.16 µM, first compound 0.00316 µM
[58] = second compound 3.16 µM, first compound 0.01 µM
[59] = second compound 10 µM, first compound 0.00316 µM
[60] = second compound 10 µM, first compound 0.01 µM
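Note: spheroids exposed to agents for seven days before luminescence viability reading.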
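Throughout, for viability, T/C: 100% = DMSO vehicle control viability.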

CC1(C)CCC(CN2CCN(c3ccc(C(=O)NS(=O)(=O)c4ccc(NCC5CCOCC5)c([N+](=O)[O-])c4)c(Oc4cnc5[nH]ccc5c4)c3)CC2)=C(c2ccc(Cl)cc2)C1 + NC1CCC(NC2CC2c2ccccc2)CC1
IC50 (second compound 0.1 µM): 3080 nM
IC50 (second compound 0.316 µM): 2740 nM
IC50 (second compound 1 µM): 2280 nM
IC50 (second compound 3.16 µM): 3110 nM
IC50 (second compound 10 µM): 3730 nM
viability, T/C [1]: 80.2%
viability, T/C [2]: 95.5%
viability, T/C [3]: 85%
viability, T/C [4]: 89.8%
viability, T/C (second compound 0.1 µM, first compound 3.16 µM): 49.1%
viability, T/C (second compound 0.1 µM, first compound 10 µM): 0.77%
viability, T/C [5]: 79.5%
viability, T/C [6]: 90.2%
viability, T/C [7]: 88.9%
viability, T/C [8]: 94.5%
viability, T/C (second compound 0.316 µM, first compound 3.16 µM): 44.6%
viability, T/C (second compound 0.316 µM, first compound 10 µM): 0.44%
viability, T/C [9]: 84%
viability, T/C [10]: 86%
viability, T/C [11]: 81.6%
viability, T/C [12]: 81.6%
viability, T/C (second compound 1 µM, first compound 3.16 µM): 37.6%
viability, T/C (second compound 1 µM, first compound 10 µM): 0.69%
viability, T/C [13]: 87.3%
viability, T/C [14]: 72.9%
viability, T/C [15]: 77.3%
viability, T/C [16]: 92.2%
viability, T/C (second compound 3.16 µM, first compound 3.16 µM): 49.6%
viability, T/C (second compound 3.16 µM, first compound 10 µM): 0.87%
viability, T/C [17]: 73.9%
viability, T/C [18]: 92.9%
viability, T/C [19]: 77.8%
viability, T/C [20]: 76.9%
viability, T/C (second compound 10 µM, first compound 3.16 µM): 58.4%
viability, T/C (second compound 10 µM, first compound 10 µM): 0.69%

CCN(c1cc(-c2ccc(CN3CCOCC3)cc2)cc(C(=O)NCc2c(C)cc(C)[nH]c2=O)c1C)C1CCOCC1 + NC1CCC(NC2CC2c2ccccc2)CC1
IC50 (second compound 0.1 µM): > 3000 nM
IC50 (second compound 0.316 µM): > 3000 nM
IC50 (second compound 1 µM): > 3000 nM
IC50 (second compound 3.16 µM): > 3000 nM
IC50 (second compound 10 µM): > 3000 nM
viability, T/C [21]: 96%
viability, T/C [22]: 80.3%
viability, T/C [23]: 80.6%
viability, T/C [24]: 107%
viability, T/C [25]: 86.5%
viability, T/C [26]: 57.5%
viability, T/C [27]: 96.7%
viability, T/C [28]: 92.1%
viability, T/C [29]: 94.7%
viability, T/C [30]: 92.1%
viability, T/C [31]: 93.7%
viability, T/C [32]: 71.1%
viability, T/C [33]: 98.4%
viability, T/C [34]: 84.3%
viability, T/C [35]: 103%
viability, T/C [36]: 83.7%
viability, T/C [37]: 82.2%
viability, T/C [38]: 62.9%
viability, T/C [39]: 81.3%
viability, T/C [40]: 104%
viability, T/C [41]: 91.6%
viability, T/C [42]: 79.1%
viability, T/C [43]: 73%
viability, T/C [44]: 70.2%
viability, T/C [45]: 80.3%
viability, T/C [46]: 82.7%
viability, T/C [47]: 98.8%
viability, T/C [48]: 73.7%
viability, T/C [49]: 79.1%
viability, T/C [50]: 70.5%

COc1cc(Nc2ncc3c(n2)-c2ccc(Cl)cc2C(c2c(F)cccc2OC)=NC3)ccc1C(=O)O + NC1CCC(NC2CC2c2ccccc2)CC1
IC50 (second compound 0.1 µM): > 1000 nM
IC50 (second compound 0.316 µM): > 1000 nM
IC50 (second compound 1 µM): > 1000 nM
IC50 (second compound 3.16 µM): > 1000 nM
IC50 (second compound 10 µM): > 1000 nM
viability, T/C [51]: 82.2%
viability, T/C [52]: 91.4%
viability, T/C [1]: 70.1%
viability, T/C [2]: 54.5%
viability, T/C [3]: 58.4%
viability, T/C [4]: 84.1%
viability, T/C [53]: 87.8%
viability, T/C [54]: 72%
viability, T/C [5]: 71%
viability, T/C [6]: 56.7%
viability, T/C [7]: 52.2%
viability, T/C [8]: 58.6%
viability, T/C [55]: 71.1%
viability, T/C [56]: 87.3%
viability, T/C [9]: 59.8%
viability, T/C [10]: 53.8%
viability, T/C [11]: 67.3%
viability, T/C [12]: 60.7%
viability, T/C [57]: 83.7%
viability, T/C [58]: 77.6%
viability, T/C [13]: 62.2%
viability, T/C [14]: 57.3%
viability, T/C [15]: 51.9%
viability, T/C [16]: 60.6%
viability, T/C [59]: 80.8%
viability, T/C [60]: 84.1%
viability, T/C [17]: 58.9%
viability, T/C [18]: 58.8%
viability, T/C [19]: 52.4%
viability, T/C [20]: 60.8%

Cn1ncnc1C1c2n[nH]c(=O)c3cc(F)cc(c23)NC1c1ccc(F)cc1 (stereo not given) + NC1CCC(NC2CC2c2ccccc2)CC1
IC50 (second compound 0.1 µM): > 100 nM
IC50 (second compound 0.316 µM): > 100 nM
IC50 (second compound 1 µM): > 100 nM
IC50 (second compound 3.16 µM): > 100 nM
IC50 (second compound 10 µM): > 100 nM
viability, T/C (second compound 0.1 µM, first compound 0.000316 µM): 92.4%
viability, T/C (second compound 0.1 µM, first compound 0.001 µM): 115%
viability, T/C [51]: 81.7%
viability, T/C [52]: 88.6%
viability, T/C [1]: 80%
viability, T/C [2]: 73.7%
viability, T/C (second compound 0.316 µM, first compound 0.000316 µM): 96.5%
viability, T/C (second compound 0.316 µM, first compound 0.001 µM): 92.8%
viability, T/C [53]: 104%
viability, T/C [54]: 93.5%
viability, T/C [5]: 104%
viability, T/C [6]: 72.4%
viability, T/C (second compound 1 µM, first compound 0.000316 µM): 104%
viability, T/C (second compound 1 µM, first compound 0.001 µM): 100%
viability, T/C [55]: 89.5%
viability, T/C [56]: 88.7%
viability, T/C [9]: 84.8%
viability, T/C [10]: 70.2%
viability, T/C (second compound 3.16 µM, first compound 0.000316 µM): 92.9%
viability, T/C (second compound 3.16 µM, first compound 0.001 µM): 95.2%
viability, T/C [57]: 94.6%
viability, T/C [58]: 98.5%
viability, T/C [13]: 98.6%
viability, T/C [14]: 82.1%
viability, T/C (second compound 10 µM, first compound 0.000316 µM): 85.6%
viability, T/C (second compound 10 µM, first compound 0.001 µM): 105%
viability, T/C [59]: 94.7%
viability, T/C [60]: 103%
viability, T/C [17]: 83.1%
viability, T/C [18]: 91.6%

NS(=O)(=O)OCC1CC(n2ccc3c(NC4CCc5ccccc54)ncnc32)CC1O (stereo not given) + NC1CCC(NC2CC2c2ccccc2)CC1
IC50 (second compound 0.1 µM): 506 nM
IC50 (second compound 0.316 µM): 517 nM
IC50 (second compound 1 µM): 412 nM
IC50 (second compound 3.16 µM): 445 nM
IC50 (second compound 10 µM): 441 nM
viability, T/C [21]: 98.6%
viability, T/C [22]: 138%
viability, T/C [23]: 125%
viability, T/C [24]: 64.8%
viability, T/C [25]: 38.5%
viability, T/C [26]: 26.1%
viability, T/C [27]: 87.6%
viability, T/C [28]: 142%
viability, T/C [29]: 144%
viability, T/C [30]: 67.9%
viability, T/C [31]: 34.1%
viability, T/C [32]: 26.1%
viability, T/C [33]: 109%
viability, T/C [34]: 138%
viability, T/C [35]: 124%
viability, T/C [36]: 56.6%
viability, T/C [37]: 37.8%
viability, T/C [38]: 27.2%
viability, T/C [39]: 93.2%
viability, T/C [40]: 138%
viability, T/C [41]: 118%
viability, T/C [42]: 59.7%
viability, T/C [43]: 37.1%
viability, T/C [44]: 25.9%
viability, T/C [45]: 91.2%
viability, T/C [46]: 116%
viability, T/C [47]: 95.7%
viability, T/C [48]: 58.4%
viability, T/C [49]: 31.9%
viability, T/C [50]: 13.2%
